In one series the test system is Vero cells. As to the kind of experiment: Cytotoxicity MTT assay in Vero cells (MNTD, CC50). Format: cell-based, African green monkey. The note with it: Table S1; Vero cells. For orientation: Tetrazolium dyes change colour on reduction, which living cells bring about.
The test system of a further series is CHIKV DRDE-07. As to the kind of experiment: In vitro screening against CHIKV (CPE inhibition and MTT cell viability). The note with it: Table S1, CHIKV-infected Vero cells; for % Cell viability: 72 hpi, MTT assay; for CPE: arbitrary score of cytopathic effect at >48 hpi. The series is classed as cell-based, chikungunya virus.

Each structure is given as a SMILES string.

In the series on Vero cells, `Cc1ccc(C2NC(=O)Oc3ccc4ccccc4c32)cc1` (stereo not drawn) [DCR66, 1-(4-methylphenyl)-1H,2H,3H-naphtho[1,2-e][1,3]oxazin-3-one] came in with an MNTD of 54 µM. In addition, in the series on CHIKV DRDE-07, the “% Cell viability” value was 12.24% and the CPE result is listed as “++++ (>60% (++++))”.
`O=C1NC(c2cccc(Cl)c2)c2c(ccc3ccccc23)O1` (stereo not drawn) [DCR67, 1-(3-chlorophenyl)-1H,2H,3H-naphtho[1,2-e][1,3]oxazin-3-one] had an MNTD in the series on Vero cells of 50.44 µM. Also, in the series on CHIKV DRDE-07, the “% Cell viability” value was determined as 10.94% and the CPE result is on record as “++++ (>60% (++++))”.
In the series on Vero cells, `O=C1NC(c2cccc(Cl)c2)c2c(ccc3ccccc23)O1` (stereo not drawn) [DCR68, 1-(3-chlorophenyl)-1H,2H,3H-naphtho[1,2-e][1,3]oxazin-3-one] came in with an MNTD of 53.27 µM. In addition, in the series with CHIKV DRDE-07, the “% Cell viability” value came to 10.84% and the CPE entry is “++++ (>60% (++++))”.
`CCOc1ccc(C2NC(=O)Oc3ccc4ccccc4c32)cc1` (stereo not drawn) [DCR69, 1-(4-ethoxyphenyl)-1H,2H,3H-naphtho[1,2-e][1,3]oxazin-3-one]: the MNTD in the series with Vero cells worked out at 195.71 µM. Also, in the series on CHIKV DRDE-07, the “% Cell viability” value worked out at 7.61% and the CPE result is listed as “++++ (>60% (++++))”.
In the same order, the values of `O=C1NC(c2ccc(C(F)(F)F)cc2)c2c(ccc3ccccc23)O1` (stereo not drawn) [DCR70, 1-[4-(trifluoromethyl)phenyl]-1H,2H,3H-naphtho[1,2-e][1,3]oxazin-3-one] are 45.44 µM, 10.59% and “++++ (>60% (++++))”.
`O=C1NC(c2ccc(OC(F)(F)F)cc2)c2c(ccc3ccccc23)O1` (stereo not drawn) [DCR71, 1-[4-(trifluoromethoxy)phenyl]-1H,2H,3H-naphtho[1,2-e][1,3]oxazin-3-one]: the MNTD with Vero cells came to 43.42 µM. For the same molecule, in the series with CHIKV DRDE-07, the “% Cell viability” value is listed as 7.44% and the CPE entry is recorded as “++++ (>60% (++++))”.
Turning to `CCOc1ccc(C2NC(=O)NC(C)=C2C(=O)OCCN(C)C)cc1` (stereo not drawn) [DCR72, 2-(dimethylamino)ethyl 4-(4-ethoxyphenyl)-6-methyl-2-oxo-1,2,3,4-tetrahydropyrimidine-5-carboxylate], the MNTD in the series with Vero cells is 31.25 µM. Further, in the series on CHIKV DRDE-07, the “% Cell viability” value is recorded as 25.42% and the CPE entry was “++++ (>60% (++++))”.
Turning to `CC1=C(C(=O)OCCN(C)C)C(c2ccc([N+](=O)[O-])cc2)NC(=O)N1` (stereo not drawn) [DCR73, 2-(dimethylamino)ethyl 6-methyl-4-(4-nitrophenyl)-2-oxo-1,2,3,4-tetrahydropyrimidine-5-carboxylate], the MNTD in the series with Vero cells turned out to be 31.25 µM. In the series with CHIKV DRDE-07, the “% Cell viability” value was 24.54% and the CPE result is “++++ (>60% (++++))”.
For `CC1=C(C(=O)OCCN(C)C)C(c2ccc(C)cc2)NC(=O)N1` (stereo not drawn) [DCR74, 2-(dimethylamino)ethyl 6-methyl-4-(4-methylphenyl)-2-oxo-1,2,3,4-tetrahydropyrimidine-5-carboxylate], in the series on Vero cells, the MNTD is reported as 31.25 µM. In addition, in the series on CHIKV DRDE-07, the “% Cell viability” value was found to be 12.75% and the CPE result was “++++ (>60% (++++))”.
In the series with Vero cells, `CCOc1ccc(C2NC(=O)NC(C)=C2C(=O)OCC[N+](C)(C)C)cc1` (stereo not drawn) [DCR75, {2-[4-(4-ethoxyphenyl)-6-methyl-2-oxo-1,2,3,4-tetrahydropyrimidine-5-carbonyloxy]ethyl}trimethylazanium] returned an MNTD of 31.25 µM. In the series with CHIKV DRDE-07, the “% Cell viability” value is 10.21% and the CPE entry was “++++ (>60% (++++))”.
For `COc1ccc(-c2nc(CC(C)=O)no2)cc1` [DCR76, 1-[5-(4-methoxyphenyl)-1,2,4-oxadiazol-3-yl]propan-2-one], the MNTD with Vero cells stood at 125 µM. Moreover, in the series on CHIKV DRDE-07, the “% Cell viability” value amounted to 19.42% and the CPE result is reported as “++++ (>60% (++++))”.
In the same order, the values of `CC(=O)Cc1noc(-c2ccc([N+](=O)[O-])cc2)n1` [DCR77, 1-[5-(4-nitrophenyl)-1,2,4-oxadiazol-3-yl]propan-2-one] are 125 µM, 10.43% and “++++ (>60% (++++))”.
Molecule `CC(=O)Cc1noc(-c2ccccc2)n1` [DCR78, 1-(5-phenyl-1,2,4-oxadiazol-3-yl)propan-2-one] returned an MNTD in the series with Vero cells of 125 µM. Moreover, in the series on CHIKV DRDE-07, the “% Cell viability” value came to 17.32% and the CPE result was “++++ (>60% (++++))”.
`CC(=O)Cc1noc(C(c2ccccc2)c2ccccc2)n1` [DCR79, 1-[5-(diphenylmethyl)-1,2,4-oxadiazol-3-yl]propan-2-one] returned an MNTD in the series with Vero cells of 125 µM. For the same molecule, in the series with CHIKV DRDE-07, the “% Cell viability” value turned out to be 16.42% and the CPE entry was “++++ (>60% (++++))”.
In the same order, the values of `CC(=O)Cc1noc(C2CCCCC2)n1` [DCR80, 1-(5-cyclohexyl-1,2,4-oxadiazol-3-yl)propan-2-one] are 125 µM, 29.64% and “++++ (>60% (++++))”.
With `CC(=O)Cc1noc(-c2cccc([N+](=O)[O-])c2)n1` [DCR81, 1-[5-(3-nitrophenyl)-1,2,4-oxadiazol-3-yl]propan-2-one], the MNTD in the series on Vero cells was 125 µM. Further, in the series with CHIKV DRDE-07, the “% Cell viability” value stood at 0% and the CPE entry is recorded as “++++ (>60% (++++))”.
With `CC(=O)Cc1noc(-c2ccncc2)n1` [DCR82, 1-[5-(pyridin-4-yl)-1,2,4-oxadiazol-3-yl]propan-2-one], in the series with Vero cells, the MNTD worked out at 125 µM. Moreover, in the series on CHIKV DRDE-07, the “% Cell viability” value was 14.42% and the CPE result is listed as “++++ (>60% (++++))”.
`CC(=O)Cc1noc(-c2cc(Cl)ccc2Cl)n1` [DCR83, 1-[5-(2,5-dichlorophenyl)-1,2,4-oxadiazol-3-yl]propan-2-one] displayed an MNTD in the series on Vero cells of 230.55 µM. In the series with CHIKV DRDE-07, the “% Cell viability” value was 10.49% and the CPE entry is listed as “++++ (>60% (++++))”.
For the molecule `CC(=O)Cc1noc(-c2ccccn2)n1` [DCR84, 1-[5-(pyridin-2-yl)-1,2,4-oxadiazol-3-yl]propan-2-one], in the series with Vero cells, the MNTD came out at 125 µM. Besides, in the series on CHIKV DRDE-07, the “% Cell viability” value is on record as 2.86% and the CPE result is “++++ (>60% (++++))”.
On to `CC(=O)Cc1noc(-c2ccc(Br)cc2)n1` [DCR85, 1-[5-(4-bromophenyl)-1,2,4-oxadiazol-3-yl]propan-2-one], for which the MNTD with Vero cells was 222.34 µM. For the same molecule, in the series on CHIKV DRDE-07, the “% Cell viability” value stood at 10.38% and the CPE entry is “++++ (>60% (++++))”.
With `C#CCOC(=O)C1=C(C)NC(=O)NC1c1ccc(OC)cc1` (stereo not drawn) [DCR86, prop-2-yn-1-yl 4-(4-methoxyphenyl)-6-methyl-2-oxo-1,2,3,4-tetrahydropyrimidine-5-carboxylate], in the series with Vero cells, the MNTD was determined as 208.12 µM. Besides, in the series with CHIKV DRDE-07, the “% Cell viability” value amounted to 10.59% and the CPE entry was “++++ (>60% (++++))”.
`C#CCOC(=O)C1=C(C)NC(=O)NC1c1ccc(CC)cc1` (stereo not drawn) [DCR87, prop-2-yn-1-yl 4-(4-ethylphenyl)-6-methyl-2-oxo-1,2,3,4-tetrahydropyrimidine-5-carboxylate]: in the series with Vero cells, the MNTD came to 104.58 µM. Further, in the series with CHIKV DRDE-07, the “% Cell viability” value stood at 11.61% and the CPE result was “++++ (>60% (++++))”.
Regarding `C#CCOC(=O)C1=C(C)NC(=O)NC1c1ccc(Cl)cc1` (stereo not drawn) [DCR88, prop-2-yn-1-yl 4-(4-chlorophenyl)-6-methyl-2-oxo-1,2,3,4-tetrahydropyrimidine-5-carboxylate], the MNTD with Vero cells stood at 205.1 µM. In the series with CHIKV DRDE-07, the “% Cell viability” value worked out at 11.05% and the CPE result is recorded as “++++ (>60% (++++))”.
The molecule `C#CCOC(=O)C1=C(C)NC(=O)NC1c1cccc(Cl)c1` (stereo not drawn) [DCR89, prop-2-yn-1-yl 4-(3-chlorophenyl)-6-methyl-2-oxo-1,2,3,4-tetrahydropyrimidine-5-carboxylate] displayed an MNTD in the series with Vero cells of 205.1 µM. Also, in the series with CHIKV DRDE-07, the “% Cell viability” value was found to be 10.94% and the CPE result was “++++ (>60% (++++))”.
With `C#CCOC(=O)C1=C(C)NC(=O)NC1c1ccc(F)cc1` (stereo not drawn) [DCR90, prop-2-yn-1-yl 4-(4-fluorophenyl)-6-methyl-2-oxo-1,2,3,4-tetrahydropyrimidine-5-carboxylate], in the series on Vero cells, the MNTD was 433.62 µM. In the series on CHIKV DRDE-07, the “% Cell viability” value was found to be 12.59% and the CPE result was “++++ (>60% (++++))”.
Regarding `C#CCOC(=O)C1=C(C)NC(=O)NC1c1ccc(C(F)(F)F)cc1` (stereo not drawn) [DCR91, prop-2-yn-1-yl 6-methyl-2-oxo-4-[4-(trifluoromethyl)phenyl]-1,2,3,4-tetrahydropyrimidine-5-carboxylate], the MNTD with Vero cells is 369.52 µM. In the series on CHIKV DRDE-07, the “% Cell viability” value is reported as 13.12% and the CPE entry is reported as “++++ (>60% (++++))”.
Take `C#CCOC(=O)C1=C(C)NC(=O)NC1c1ccccc1` (stereo not drawn) [DCR92, prop-2-yn-1-yl 6-methyl-2-oxo-4-phenyl-1,2,3,4-tetrahydropyrimidine-5-carboxylate]: the MNTD with Vero cells was 462.48 µM. Besides, in the series on CHIKV DRDE-07, the “% Cell viability” value amounted to 12.8% and the CPE result was “++++ (>60% (++++))”.
In the same order, the values of `C#CCOC(=O)C1=C(C)NC(=O)NC1c1ccc(OCC)cc1` (stereo not drawn) [DCR94, prop-2-yn-1-yl 4-(4-ethoxyphenyl)-6-methyl-2-oxo-1,2,3,4-tetrahydropyrimidine-5-carboxylate] are 198.83 µM, 19.5% and “++++ (>60% (++++))”.
Molecule `C#CCOC(=O)C1=C(C)NC(=O)NC1c1cccc(F)c1` (stereo not drawn) [DCR95, prop-2-yn-1-yl 4-(3-fluorophenyl)-6-methyl-2-oxo-1,2,3,4-tetrahydropyrimidine-5-carboxylate] showed an MNTD in the series on Vero cells of 433.62 µM. In addition, in the series with CHIKV DRDE-07, the “% Cell viability” value is recorded as 11.54% and the CPE entry was “++++ (>60% (++++))”.
In the same order, the values of `COc1ccc(C2NC(=O)NC(C)=C2C(=O)OCCC(C)C)cc1` (stereo not drawn) [DCR96, 3-methylbutyl 4-(4-methoxyphenyl)-6-methyl-2-oxo-1,2,3,4-tetrahydropyrimidine-5-carboxylate] are 376.06 µM, 11.71% and “++++ (>60% (++++))”.
In turn, `COc1ccc(C2NC(=O)NC(C)=C2C(=O)OCCc2ccccc2)cc1` (stereo not drawn) [DCR97, 2-phenylethyl 4-(4-methoxyphenyl)-6-methyl-2-oxo-1,2,3,4-tetrahydropyrimidine-5-carboxylate] gave an MNTD in the series on Vero cells of 170.57 µM. Besides, in the series with CHIKV DRDE-07, the “% Cell viability” value is on record as 11.19% and the CPE result is “++++ (>60% (++++))”.

(Values after paper PMC10674894 (Viruses, 2023).)
